Patent US11679107B2 (Eisai R&D Management Co., Ltd., priority 2018, dated 2023)
Where two headings read alike, the source gives them in different places.

Columns and labels:
[1] = test system: Ad2 variant pre-mRNAs spliced in HeLa S3 nuclear extracts; test: In vitro splicing assay (IVS), RT-qPCR of spliced product; assay type: biochemical; conditions: geometric mean
Outline: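 Read-out is one-step TaqMan RT-qPCR of spliced Ad2 mRNA with Ftz as reference, normalized to DMSO and fit by non-linear regression. Reactions held HeLa S3 nuclear extract, 2 ng Ad2-derived pre-mRNA and test compound, with 15 min preincubation. Splicing was started with ATP-containing activation buffer and run 90 min at 30 °C.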

[2] = test system: NCI-H1568 cells (high MCL1); test: Cell proliferation and viability, CellTiter-Glo, 72 hours; assay type: cell-based; conditions: for GI50: geometric mean; for CTGlo-ATS Mean MinResponse % 72 h NCIH1568.1: −100% cidal, 0% static, 100% maximal growth
Outline: (§1)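 RPMI-1640/10% FBS (Panc: + insulin, FBS 15%); 11-pt half-log dose, ~10 μM-100 pM, 0.1% DMSO; 37° C, 5% CO2; ATP luminescence read; % inhibition vs T0 and vehicle, −100% cidal to 100% uninhibited growth.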

[3] = test system: Panc 05.04 cells (SF3b K700E mutant); test: as above; assay type: cell-based; conditions: for CTGlo-ATS Mean MinResponse % 72 h PANC0504.1: −100% cidal, 0% static, 100% maximal growth; for GI50: geometric mean
Outline: as §1

SF3b complexes = target: T1, SF3b complexes (Homo sapiens, UniProt O75533+Q7RTV0); test: Scintillation proximity assay (SPA) with [3H]-labelled pladienolide probe; assay type: binding; conditions: SF3B1 (WT); geometric mean; read-out: SPA-ATS GMean IC50 (nM) SF3B1 (WT)
T1 construct: endogenous in cells; host or cells: Nuclear extracts; A HeLa S3 extract preparation is described for the in vitro splicing assay
Outline: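 SF3b complexes captured from nuclear extracts on anti-SF3B1 antibody SPA beads; test compounds pre-incubated 30 min before 2.5 nM [3H]-pladienolide probe added, then 30 min incubation. Bound probe read by scintillation; values from non-linear regression of concentration–response curves.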

[4] = Ad2.1 pre-mRNA substrate, read-out: qPCR-IVS-ATS GMean IC50 (nM) Ad2.1
[5] = Ad2.2 pre-mRNA substrate, read-out: qPCR-IVS-ATS GMean IC50 (nM) Ad2.2
[6] = NCI-H1568, read-out: CTGlo-ATS GMean GI50 (nM) 72 h NCIH1568.1, NCIH1568.1 cells, 72 h
[7] = Panc 05.04, read-out: CTGlo-ATS GMean GI50 (nM) 72 h PANC0504.1, PANC0504.1 cells, 72 h
[8] = NCI-H1568, 72 h, read-out: CTGlo-ATS GMean GI50 (nM) 72 h NCIH1568.1, NCIH1568.1 cells, 72 h
[9] = Panc 05.04, 72 h, read-out: CTGlo-ATS GMean GI50 (nM) 72 h PANC0504.1, PANC0504.1 cells, 72 h

SMILES | IC50 [1, 4] | IC50 [1, 5] | GI50 [2, 6] | CTGlo-ATS Mean MinResponse % 72 h NCIH1568.1 ([2]; NCIH1568.1 cells, 72 h) | CTGlo-ATS Mean MinResponse % 72 h PANC0504.1 ([3]; PANC0504.1 cells, 72 h) | GI50 [3, 7] | IC50 (SF3b complexes) | GI50 [2, 8] | GI50 [3, 9]
C/C(=C\c1cccc(S(=O)(=O)N2CCNCC2)c1)[C@H]1OC(=O)C[C@H](O)CC[C@H](C)[C@@H](OC(=O)N2CCN(C)CC2)/C=C/[C@@H]1C [Compound 93] | 219 nM | 41.6 nM | 73.8 nM | −57.108% | −97.726% | 109 nM | 24.7 nM | – | –
C/C(=C\c1cccc(S(=O)(=O)N2CCN(C=O)CC2)c1)[C@H]1OC(=O)C[C@H](O)CC[C@H](C)[C@@H](OC(=O)N2CCN(C)CC2)/C=C/[C@@H]1C [Compound 94] | 5570 nM | 37.5 nM | 35.5 nM | −40.948% | −94.671% | 30.4 nM | 7.48 nM | – | –
C/C(=C\c1cccc(S(=O)(=O)N2CCC(O)CC2)c1)[C@H]1OC(=O)C[C@H](O)CC[C@H](C)[C@@H](OC(=O)N2CCN(C)CC2)/C=C/[C@@H]1C [Compound 95] | 10.3 nM | 10 nM | – | −73.174% | −93.120% | – | 2.32 nM | 2.51 nM | 2.59 nM
C/C(=C\c1cc(C)cc2[nH]ncc12)[C@H]1OC(=O)C[C@H](O)CC[C@H](C)[C@@H](OC(=O)N2CCN(C)CC2)/C=C/[C@@H]1C [Compound 96] | > 25000 nM | 108 nM | 305 nM | −29.687% | −14.554% | 168 nM | 2.4 nM | – | –
C/C(=C\c1cccc2c1c(C)nn2C)[C@H]1OC(=O)C[C@H](O)CC[C@H](C)[C@@H](OC(=O)N2CCN(C)CC2)/C=C/[C@@H]1C [Compound 97] | > 25000 nM | 2890 nM | 4370 nM | 11.801% | 46.987% | 9140 nM | 240 nM | – | –
C/C(=C\c1cc(F)cc(N2CCOCC2)c1)[C@H]1OC(=O)C[C@H](O)CC[C@H](C)[C@@H](OC(=O)N(C)C2CN3CCC2CC3)/C=C/[C@@H]1C (some centres unmarked) [Compound 98] | 159 nM | 35.9 nM | – | −75.954% | −87.759% | – | 3.45 nM | 11.5 nM | 10.3 nM
C/C(=C\c1cc(F)c2cn(CC3CC3)nc2c1)[C@H]1OC(=O)C[C@H](O)CC[C@H](C)[C@@H](OC(=O)N2CCN(C)CC2)/C=C/[C@@H]1C [Compound 99] | > 25000 nM | 156 nM | 93.2 nM | −73.818% | −69.788% | 78 nM | 4.14 nM | – | –
C/C(=C\c1cc(F)c2cnn(C)c2c1)[C@H]1OC(=O)C[C@H](O)CC[C@H](C)[C@@H](OC(=O)N2CCN(C)CC2)/C=C/[C@@H]1C [Compound 101] | 1810 nM | 4.13 nM | – | −64.073% | −94.474% | – | 1.1 nM | 7.68 nM | 9.78 nM
C/C(=C\c1cnn(Cc2ccncc2)c1)[C@H]1OC(=O)C[C@H](O)CC[C@H](C)[C@@H](OC(=O)N2CCN(C)CC2)/C=C/[C@@H]1C [Compound 102] | > 25000 nM | 507 nM | 4900 nM | 31.099% | 24.371% | 3020 nM | 29.8 nM | – | –
C/C(=C\c1cnn(C)c1)[C@H]1OC(=O)C[C@H](O)CC[C@H](C)[C@@H](OC(=O)N2CCN(C)CC2)/C=C/[C@@H]1C [Compound 103] | > 25000 nM | 4260 nM | – | 78.168% | 80.958% | – | 258 nM | > 10000 nM | > 10000 nM
C/C(=C\c1cc(F)cc(N2CCN(CCO)C(=O)C2)c1)[C@H]1OC(=O)C[C@H](O)CC[C@H](C)[C@@H](OC(=O)N2CCN(C)CC2)/C=C/[C@@H]1C [Compound 104] | 31.9 nM | 13.9 nM | 5.1 nM | −69.040% | −86.795% | 4.58 nM | 2.1 nM | – | –
C/C(=C\c1cnn(C2CCN(C)CC2)c1)[C@H]1OC(=O)C[C@H](O)CC[C@H](C)[C@@H](OC(=O)N2CCN(C)CC2)/C=C/[C@@H]1C [Compound 106] | 21300 nM | 556 nM | 9020 nM | 49.516% | 25.144% | 1950 nM | 146 nM | – | –
C/C(=C\c1cc(F)cc(N2CCN(CC(F)(F)F)CC2)c1)[C@H]1OC(=O)C[C@H](O)CC[C@H](C)[C@@H](OC(=O)N2CCN(C)CC2)/C=C/[C@@H]1C [Compound 107] | 190 nM | 25.4 nM | 7.27 nM | −87.564% | −83.679% | 8.46 nM | 8.76 nM | – | –
COCC(=O)N1CCN(c2cc(F)cc(/C=C(\C)[C@H]3OC(=O)C[C@H](O)CC[C@H](C)[C@@H](OC(=O)N4CCN(C)CC4)/C=C/[C@@H]3C)c2)CC1 [Compound 108] | 16.8 nM | 14.3 nM | 2.47 nM | −79.118% | −82.618% | 3.31 nM | 2.03 nM | – | –
C/C(=C\c1cc(F)cc(N2CCN(C(=O)C3CC3)CC2)c1)[C@H]1OC(=O)C[C@H](O)CC[C@H](C)[C@@H](OC(=O)N2CCN(C)CC2)/C=C/[C@@H]1C [Compound 109] | 26.5 nM | 14 nM | 2 nM | −84.780% | −84.673% | 3.55 nM | 2.85 nM | – | –
COc1ccc(S(=O)(=O)N2CCN(c3cc(F)cc(/C=C(\C)[C@H]4OC(=O)C[C@H](O)CC[C@H](C)[C@@H](OC(=O)N5CCN(C)CC5)/C=C/[C@@H]4C)c3)CC2)cc1 [Compound 110] | 142 nM | 63.2 nM | 40.9 nM | −93.755% | −74.667% | 41.8 nM | 42.1 nM | – | –
C/C(=C\c1cc(F)cc(N2CCN(C(=O)C3CCCCC3)CC2)c1)[C@H]1OC(=O)C[C@H](O)CC[C@H](C)[C@@H](OC(=O)N2CCN(C)CC2)/C=C/[C@@H]1C [Compound 114] | 103 nM | 39.1 nM | – | −87.102% | −82.856% | – | 18.2 nM | 9.35 nM | 12.3 nM
